≈ marks a conversion by molar mass, not a printed value.
Tests used:
[1] = tested on: Mycobacterium tuberculosis; assay: Antitubercular activity against Mycobacterium tuberculosis H37Rv assessed as growth inhibition; assay type: functional
[2] = tested on: Mycobacterium tuberculosis; assay: Antitubercular activity against XDR clinical isolates Mycobacterium tuberculosis […] assessed as growth inhibition in presence of […] clavulanate; assay type: functional
[3] = tested on: Mycolicibacterium smegmatis; assay: Antimicrobial activity against Mycobacterium smegmatis assessed as intracellular bacterial killing; assay type: functional
[4] = tested on: Mycobacterium tuberculosis; assay: Antitubercular activity against Mycobacterium tuberculosis assessed as growth inhibition; assay type: functional
[5] = tested on: Mycobacterium tuberculosis; assay: Antitubercular activity against Mycobacterium tuberculosis infected in mouse assessed as reduction in colony formation at 20 mg/kg for 20 days; assay type: functional
[6] = tested on: Mycobacterium tuberculosis; assay: Antitubercular activity against Mycobacterium tuberculosis H37Rv assessed as growth inhibition in presence of […] clavulanate; assay type: functional
[7] = tested on: Mycobacterium tuberculosis; assay: Antitubercular activity against Mycobacterium tuberculosis infected in mouse J774A.1 assessed as reduction in bacterial count; assay type: functional
Mycobacterium avium = assay: Antimycobacterial activity against Mycobacterium avium assessed as growth inhibition; assay type: functional
[8] = tested on: Mycolicibacterium smegmatis; assay: Antimicrobial activity against Mycobacterium smegmatis; assay type: functional
[9] = tested on: Mycobacterium tuberculosis; assay: Antitubercular activity against drug-susceptible Mycobacterium tuberculosis clinical isolates assessed as growth inhibition; assay type: functional
[10] = tested on: Mycobacterium tuberculosis; assay: Antitubercular activity against Mycobacterium tuberculosis assessed as growth inhibition by alamar blue assay; assay type: functional
[11] = Oral bioavailability in dog; assay type: ADME, organism-based, Canis lupus familiaris; settings: in vivo

**Q.** With `CCc1nc2ccc(Cl)cn2c1C(=O)NCc1ccc(N2CCC(c3ccc(OC(F)(F)F)cc3)CC2)cc1` [TELACEBEC] as the molecule, how does the MIC [1] read?
**A.** 2.7 nM

**Q.** And the MIC90 [2]?
**A.** < 0.43 nM

**Q.** Which MIC [3] does the source give for `CO[C@H]1/C=C/O[C@@]2(C)Oc3c(C)c(O)c4c(O)c(c(/C=N/N5CCN(C)CC5)c(O)c4c3C2=O)NC(=O)/C(C)=C\C=C\[C@H](C)[C@H](O)[C@@H](C)[C@@H](O)[C@@H](C)[C@H](OC(C)=O)[C@@H]1C` [RIFAMPIN] here?
**A.** < 1 µg/mL

**Q.** For `CC(=O)NC[C@H]1CN(c2ccc(N3CCOCC3)c(F)c2)C(=O)O1` [LINEZOLID], which MIC [4] is on record?
**A.** < 1 µg/mL

**Q.** Which MIC [1] does the source give for `CCCCCCCN1CCN(c2nc(=O)c3cc(C(F)(F)F)cc([N+](=O)[O-])c3s2)CC1` here?
**A.** 0.00019 µg/mL

**Q.** Which MIC [1] does the source give for `COc1ncccc1Nc1cc2nc3ccccc3n(-c3ccc(OC(F)(F)F)cc3)c-2c/c1=N\C1CCC(OC)CC1` (stereo not drawn) here?
**A.** > 25 µg/mL

**Q.** And the log10cfu [5]?
**A.** 4.66

**Q.** For `CC(C)/N=c1\cc2n(-c3ccc(Cl)cc3)c3ccccc3nc-2cc1Nc1ccc(Cl)cc1` [CLOFAZIMINE], which MIC [1] is on record?
**A.** 1.21 µg/mL

**Q.** What about the MIC [4] of the same molecule?
**A.** 0.12 µg/mL (≈ 0.253 µM)

**Q.** What about the log10cfu [5] of the same molecule?
**A.** 6.33

**Q.** Which MIC [4] does the source give for `CC(=O)NC[C@H]1CN(c2ccc(N3CCSCC3)c(F)c2)C(=O)O1` [SUTEZOLID] here?
**A.** 0.125 µg/mL (≈ 0.354 µM)

**Q.** What does the source list for `CC1(C)S[C@@H]2[C@H](NC(=O)[C@H](N)c3ccc(O)cc3)C(=O)N2[C@H]1C(=O)O` [AMOXICILLIN]?
**A.** MIC [6]: 0.32 µg/mL; fold change (FC) [7]: 1.5; MIC [2]: 0.23 µg/mL

**Q.** Which MIC [1] does the source give for `O=C([C@@H](O)CO)N1CC=C(c2c(F)cc(N3C[C@H](COc4ccon4)OC3=O)cc2F)CC1` [POSIZOLID] here?
**A.** 1 µg/mL

**Q.** Which MIC [3] does the source give for `NNC(=O)c1ccncc1` [ISONIAZID] here?
**A.** 0.1 µg/mL (≈ 0.729 µM)

**Q.** For `O=c1nc(N2CCN(CCCCOc3ccccc3)CC2)sc2c([N+](=O)[O-])cc(C(F)(F)F)cc12`, which MIC [1] is on record?
**A.** 0.00019 µg/mL

**Q.** For `CO[C@H]1/C=C/O[C@@]2(C)Oc3c(C)c(O)c4c(c3C2=O)C2=NC3(CCN(CC(C)C)CC3)NC2=C(NC(=O)/C(C)=C\C=C\[C@H](C)[C@H](O)[C@@H](C)[C@@H](O)[C@@H](C)[C@H](OC(C)=O)[C@@H]1C)C4=O` [RIFABUTIN], which MIC [1] is on record?
**A.** 0.015 µg/mL

**Q.** What about the MIC (Mycobacterium avium) of the same molecule?
**A.** 0.06 µg/mL (≈ 0.0708 µM)

**Q.** For `O=[N+]([O-])c1cn2c(n1)OC[C@@H](OCc1ccc(OC(F)(F)F)cc1)C2` [PRETOMANID], which MIC [1] is on record?
**A.** 0.13 µg/mL

**Q.** For `O=c1nc(N2CCN(CC3CCCCC3)CC2)sc2c([N+](=O)[O-])cc(C(F)(F)F)cc12` [MACOZINONE], which MIC [1] is on record?
**A.** 0.00019 µg/mL

**Q.** What does the source list for `C[C@H]1COC2(CCN(c3nc(=O)c4cc(C(F)(F)F)cc([N+](=O)[O-])c4s3)CC2)O1` [BTZ-043]?
**A.** MIC [1]: 0.001 µg/mL; MIC [8]: 0.004 µg/mL (≈ 0.00927 µM); MIC [3]: < 0.01 µg/mL

**Q.** Which MIC [1] does the source give for `O=c1nc(N2CCN(CCCCc3ccccc3)CC2)sc2c([N+](=O)[O-])cc(C(F)(F)F)cc12` here?
**A.** 0.00019 µg/mL

**Q.** With `COc1c(N2CC3(CC3)[C@](C)(N)C2)c(F)cc2c(=O)c(C(=O)O)cn([C@@H]3C[C@@H]3F)c12` as the molecule, how does the MIC90 [4] read?
**A.** 0.06 µg/mL (≈ 0.143 µM)

**Q.** Which MIC [9] does the source give for `COc1nc2ccc(Br)cc2cc1[C@@H](c1ccccc1)[C@@](O)(CCN(C)C)c1cccc2ccccc12` [BEDAQUILINE] here?
**A.** 0.002 µg/mL (≈ 0.0036 µM)

**Q.** What about the MBC90 [10] of the same molecule?
**A.** 2 µg/mL (≈ 3.6 µM)

**Q.** And the WCC90 [10]?
**A.** 1 µg/mL

**Q.** With `CC(C)=CCC/C(C)=C/CNCCNC1C2CC3CC(C2)CC1C3` (stereo not drawn) [SQ109] as the molecule, how does the MIC [9] read?
**A.** 0.2 µg/mL (≈ 0.605 µM)

**Q.** What about the bioavailability [11] of the same molecule?
**A.** 2.4%

**Q.** With `O=c1nc(N2CCN(CCC3CCCCC3)CC2)sc2c([N+](=O)[O-])cc(C(F)(F)F)cc12` as the molecule, how does the MIC [1] read?
**A.** 0.00019 µg/mL

**Q.** With `C[C@@]1(COc2ccc(N3CCC(Oc4ccc(OC(F)(F)F)cc4)CC3)cc2)Cn2c([N+](=O)[O-])cnc2O1` as the molecule, how does the MIC [1] read?
**A.** 0.012 µg/mL
